Measurements: patent US7148328B2, “Compositions and methods for regulating autolytic processes in bacteria” (Trustees of Dartmouth College, priority 2001, dated 2006)

Experiments:
Format in all cases: cell-based, S. aureus
[1] = test system: RAT mutant; assay: Subinhibitory antibiotic added to growing culture at mid-log phase, optical density followed; settings: 200 ng/ml penicillin (subinhibitory) added at OD650 nm of 0.5, mid-log phase, FIG. 1
Protocol: (§1) RAT plays a role in regulating autolytic activity of S. aureus. […] To evaluate whether the cell lysis of the RAT mutant was additive to the effect of a subinhibitory concentration of penicillin, 200 ng/ml of penicillin was added to a growing culture of the RAT mutant at an OD650 nm of 0.5, corresponding to the mid-log phase. […] This finding is consistent with the additive effect of penicillin upon the lytic propensity of the RAT mutant late in the growth cycle. […] In comparison to the parental strain without antibiotics, the RAT mutant with subinhibitory concentrations of penicillin has a 3–4 log kill.

[2] = test system: wild-type strain; assay: as above; settings: 200 ng/ml penicillin (subinhibitory) added at OD650 nm of 0.5, mid-log phase, FIG. 1
[3] = test system: RAT mutant; assay: Plating of antibiotic-treated cultures on agar plates without antibiotic selection (kill)
Protocol: as §1

Substance: penicillin
- change in optical density (cell lysis) after addition of antibiotic [1]: further reduction in optical density
- change in optical density (growth) after addition of antibiotic [2]: no increase in optical density
- more kill of RAT mutant than the parental strain ([3]; cultures with subinhibitory antibiotic plated on agar without antibiotic selection, compared with parental strain): 1–2 log
- kill of RAT mutant in comparison to the parental strain without antibiotics ([3]; subinhibitory concentrations of penicillin, compared with parental strain without antibiotics): 3–4 log
